Laboratory results reported in publication PMC8773446, “Comparative Analysis of Three Trypanosomatid Catalases of Different Origin” (Antioxidants, 2021).

Key:
Details in all cases: 15 mM H2O2, 50 mM potassium phosphate pH 7, 1 min preincubation; read-out: 3-AT IC50
[1] = molecular target: L. pyrrhocoris catalase (Leptomonas pyrrhocoris, UniProt A0A0M9FX30); assay: biochemical
Protocol: (§1) The enzymatic inhibition was measured with 15 mM H2O2 and 50 mM potassium phosphate, pH 7. The enzyme was incubated with different concentrations of inhibitors (KCN or 3-amino-1,2,4-triazole, hereafter denoted as 3-AT, both from MilliporeSigma) for one minute, then the substrate was added and the residual activity was measured at 240 nm for 2 min [56]. All measurements were performed in triplicate.

[2] = molecular target: V. ingenoplastis catalase; type: biochemical, Vickermania ingenoplastis
Protocol: as §1

[3] = molecular target: Blastocrithidia sp. catalase; type: biochemical
Protocol: as §1

Sequence of L. pyrrhocoris catalase (A0A0M9FX30 entry or part of it): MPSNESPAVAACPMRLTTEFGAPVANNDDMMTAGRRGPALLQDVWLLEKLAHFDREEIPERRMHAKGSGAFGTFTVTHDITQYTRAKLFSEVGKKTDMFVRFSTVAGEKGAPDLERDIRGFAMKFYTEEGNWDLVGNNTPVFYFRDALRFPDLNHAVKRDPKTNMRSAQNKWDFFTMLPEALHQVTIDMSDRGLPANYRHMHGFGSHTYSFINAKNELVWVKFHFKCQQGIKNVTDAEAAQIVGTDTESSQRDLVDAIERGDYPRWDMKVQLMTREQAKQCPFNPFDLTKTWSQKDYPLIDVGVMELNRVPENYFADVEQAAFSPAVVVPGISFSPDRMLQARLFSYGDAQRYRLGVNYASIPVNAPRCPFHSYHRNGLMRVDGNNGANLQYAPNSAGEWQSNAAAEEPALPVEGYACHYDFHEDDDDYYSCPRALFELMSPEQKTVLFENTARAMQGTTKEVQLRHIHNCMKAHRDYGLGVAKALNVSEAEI

With `Nc1nc[nH]n1` [3-AT, 3-amino-1,2,4-triazole] as the compound, how does the IC50 [1] read?
The IC50 was 10.4 mM.

What about the IC50 [2] of the same compound?
Its IC50 is 11.4 mM.

And the IC50 [3]?
The IC50 was 15.6 mM.
